In EP0411567A1, “5-(omega-Aminoacyl)-5,10-dihydro-11H-dibenzo[b,e][1,4]-diazepin-11-ones, processes for their preparation, and their use as medicaments” (ARZNEIMITTELWERK DRESDEN GmbH, priority 1989, dated 1991):
Structures can show the parent of a compound that is named as a salt. Where two headings read alike, the source gives them in different places.

Tests used:
[1] = tested on: CaCl₂-Arrhythmie der Ratte; experiment: CaCl₂-induced arrhythmia in the rat (antifibrillatory effect); format: in vivo; details: iv; for ED50: Rattus norvegicus, read-out: CaCl₂-Arrhythmie Ratte, ED₅₀
Description: (§1) ED₅₀ i.v. = Dosis in mg/kg, welche die fibrillatorische Wirkung von CaCl₂ an Ratten nach I.v.-Applikation der Testsubstanz um 50 % unterdrückt. Berechnung nach der Probit-Regressionsanalyse mit Vertrauensbereich, p = 0,05 (Werte in Klammern) LD₅₀ i.v. = Letale Dosis in mg/kg bei 50 % der Versuchstiere einer orientierenden Bestimmung der akuten Toxizität an Wistarratten hauseigener Zucht, I.v.-Applikation in die Schwanzvene, 3 - 4 Dosierungen zu je 10 Tieren.

Wistarratten = experiment: Orienting determination of acute toxicity in rats, i.v.; format: in vivo, Ratte; details: therapeutic breadth; rat LD₅₀ i.v. / rat CaCl₂-arrhythmia ED₅₀
Description: Die Verbindungen der allgemeinen Formeln I, VII bzw.
as §1
(§2) Berechnung nach der Probit-Regressionsanalyse mit Vertrauensbereich, p = 0,05 (Werte in Klammern) [formula] zur Ermittlung der therapeutischen Breite eff. Dosis = effektive Dosis in mg/kg Wirkungsdauer = Wirkungsdauer in Minuten an Hunden, 24 h nach zweistufiger Koronarligatur

[2] = tested on: Hunden, 24 Stunden nach zweistufiger Koronarligatur (Harris-Modell); experiment: Two-stage coronary ligation in the dog (Harris model); format: in vivo, Hund; details: for Ektopische Kontraktionen in Prozent/min / Gesamtzahl der Herzkontraktionen/min: mean x; for Harris Hund Wirkungsdauer / Harris Hund eff. Dosis i.v.: dogs, 24 h after two-stage coronary ligation; for Harris Hund Wirkungsdauer: at the effective i.v. dose
Protocol: Am Modell der zweistufigen Koronarligatur am Hund nach Harris (Methodik bei Kaverina und Mitarbeiter, Pharmazie 40, S. 845 (1985)) zeigen die Verbindungen der allgemeinen Formeln I, VII bzw. X eine starke und langanhaltende Wirkung (siehe Tabellen 2 und 3).
Bereits in der 5. Minute nach der intravenösen Injektion der Verbindungen der allgemeinen Formeln I, VII bzw. X in einer Konzentration von 0,005 mmol/kg (ca. 2,0 mg/kg) wird die ektopischeArrhythmie um das 2- bis 3-fache des Basiswertes unterdrückt, während die Gesamtzahl der Herzkontraktionen konstant bleibt. Die Wirkung auf die ektopische Arrhythmie hält 30 bis 60 Minuten lang an. Tabelle 1
as §2
x = Mittelwert s = Standardabweichung ±

[3] = tested on: Hunden, 24 Stunden nach zweistufiger Koronarligatur (Harris-Modell); details: Harris model, cited from earlier work
[4] = dose suppressing the fibrillatory effect of CaCl₂ by 50 %, probit regression, confidence range p = 0,05 in brackets
[5] = 30 min after 0,005 mmol/kg i.v.
[6] = 60 min after 0,005 mmol/kg i.v.
[7] = 120 min after 0,005 mmol/kg i.v.
[8] = 180 min after 0,005 mmol/kg i.v.
[9] = Basis (before injection), 0,005 mmol/kg group
[10] = 300 min after 0,005 mmol/kg i.v.
[11] = 360 min after 0,005 mmol/kg i.v.
[12] = 5 min after 0,02 mmol/kg (5,4 mg/kg)
[13] = 30 min after 0,02 mmol/kg (5,4 mg/kg)
[14] = Basis (before injection), 0,02 mmol/kg (5,4 mg/kg) group

Structure (SMILES)	ED50 [1, 4]	Q LD₅₀/ED₅₀ (Wistarratten)	Ektopische Kontraktionen in Prozent/min ([2]; 5 min after 0,005 mmol/kg i.v.)	Gesamtzahl der Herzkontraktionen/min ([2]; 5 min after 0,005 mmol/kg i.v.)	Ektopische Kontraktionen in Prozent/min [2, 5]	Gesamtzahl der Herzkontraktionen/min [2, 5]	Ektopische Kontraktionen in Prozent/min [2, 6]	Gesamtzahl der Herzkontraktionen/min [2, 6]	Ektopische Kontraktionen in Prozent/min [2, 7]	Gesamtzahl der Herzkontraktionen/min [2, 7]	Ektopische Kontraktionen in Prozent/min [2, 9]	Gesamtzahl der Herzkontraktionen/min [2, 9]	Harris Hund Wirkungsdauer [2]	Harris Hund eff. Dosis i.v. [2]	further results
CN(C)CCCCCC(=O)N1c2ccccc2NC(=O)c2ccccc21 [Beispiel 1, 5-(6-Dimethylaminocapronyl)-5,10-dihydro-11H-dibenzo [b,e]-[1,4] diazepin-11-on·HCl]	0.41 mg/kg	207	30 Prozent	192 min⁻¹	47 Prozent	193 min⁻¹	54 Prozent	177 min⁻¹	68 Prozent	175 min⁻¹	99 Prozent	164 min⁻¹	60 min	1,76 mg/kg	Ektopische Kontraktionen in Prozent/min [2, 8]: 80 Prozent; Gesamtzahl der Herzkontraktionen/min [2, 8]: 169 min⁻¹
CCN(CC)CCCC(=O)N1c2ccccc2NC(=O)c2ccccc21 [Beispiel 2, 5-(4-Diethylaminobutyryl)-5,10-dihydro-11H-dibenzo[b,e]-[1,4]diazepin-11-on]			26 Prozent		24 Prozent		75 Prozent		90 Prozent		88 Prozent				
CCN(CC)CCCC(=O)N1c2ccc(Cl)cc2NC(=O)c2ccccc21 [Beispiel 4, 8-Chlor-5-(4-diethylaminobutyryl)-5,10-dihydro-11H-dibenzo[b,e] [1,4]diazepin-11-on]	0.044 mg/kg	1614		175 min⁻¹		180 min⁻¹		181 min⁻¹		183 min⁻¹		183 min⁻¹	30 min	1,93 mg/kg	
CCN(CC)CCCCCC(=O)N1c2ccc(Cl)cc2NC(=O)c2ccccc21 [Beispiel 6, 8-Chlor-5-(6-diethylaminocapronyl)-5,10-dihydro-11H-dibenzo[be] [1,4]diazepin-11-on]	0.44 mg/kg	86	20 Prozent	170 min⁻¹	4 Prozent	159 min⁻¹	37 Prozent	162 min⁻¹	76 Prozent	162 min⁻¹	78 Prozent	167 min⁻¹	60 min	2,07 mg/kg	
O=C1Nc2cc(Cl)ccc2N(C(=O)CCCCCCN2CCOCC2)c2ccccc21 [Beispiel 9, 8-Chlor-5-(7-N-morpholinoönanthoyl)-5,10-dihydro-11H-dibenzo [b,e] [1,4]diazepin-11-on]	0.16 mg/kg	256	21 Prozent	179 min⁻¹	38 Prozent	164 min⁻¹	42 Prozent	168 min⁻¹	42 Prozent	156 min⁻¹	90 Prozent	156 min⁻¹	120 min	2,21 mg/kg	Ektopische Kontraktionen in Prozent/min [2, 8]: 73 Prozent; Gesamtzahl der Herzkontraktionen/min [2, 8]: 159 min⁻¹; Ektopische Kontraktionen in Prozent/min [2, 10]: 79 Prozent; Gesamtzahl der Herzkontraktionen/min [2, 10]: 163 min⁻¹; Ektopische Kontraktionen in Prozent/min [2, 11]: 89 Prozent; Gesamtzahl der Herzkontraktionen/min [2, 11]: 180 min⁻¹
C=CC1CN2CCC1CC2C(O)c1ccnc2ccc(OC)cc12 (centres unmarked) [Chinidin]															CaCl₂-Arrhythmie Ratte, ED₅₀ ([1]; in vivo): 2,7 (2,0 - 3,7) mg/kg; Harris Hund Wirkungsdauer ([3]; dogs, listed as whose dose is marked [1] (literature)): 15 min; Harris Hund eff. Dosis i.v. ([3]; dogs, value marked [1] (Mokler and van Arman 1962)): 10,0 [1] mg/kg; Gesamtzahl der Herzkontraktionen ([3]; in words, literature [1]): Abnahme; ektopische Arrhythmie ([3]; in words, literature [1]): Abnahme
CCN(CC)CC(=O)Nc1c(C)cccc1C [Lidocain, reference compound]													15 min	8,0 mg/kg	ED50 [1]: 3.1 mg/kg; Ektopische Kontraktionen in Prozent/min [2, 12]: 34 Prozent; Gesamtzahl der Herzkontraktionen/min [2, 12]: 139 min⁻¹; Ektopische Kontraktionen in Prozent/min [2, 13]: 78 Prozent; Gesamtzahl der Herzkontraktionen/min [2, 13]: 138 min⁻¹; Ektopische Kontraktionen in Prozent/min [2, 14]: 83 Prozent; Gesamtzahl der Herzkontraktionen/min [2, 14]: 146 min⁻¹; Gesamtzahl der Herzkontraktionen ([2]; in words, Harris model): Abnahme; ektopische Arrhythmie ([2]; in words, Harris model): Abnahme
